Measured values taken from patent publication US20230390402A1, “IONIZABLE CATIONIC LIPID ANALOG MATERIAL AND USE THEREOF AS DRUG DELIVERY CARRIER” (GUANGZHOU LIDE BIOMEDICINE TECHNOLOGY CO., LTD., priority 2021, published 2023).

What was measured:
[1] = test system: DC 2.4 cells; test: Transfection of eGFP-expressing mRNA in DC 2.4 cells (FCM and LSCM); assay type: cell-based, mouse; details: material 0.25-2 μg/well, mRNA 0.2 μg/well, 24 h, compared with Lipofectamine 2000
Protocol: In this experiment, with eGFP-mRNA as model mRNA, an mRNA transfection efficiency of a cationic lipid analog material in DC 2.4 cells was detected. A specific operation method was as follows:
DC 2.4 cells were inoculated in a 48-well plate and cultured in an incubator for 12 h; each of different cationic lipid analog materials (0.25 μg/well to 2 μg/well) was mixed with eGFP-expressing mRNA (0.2 μg/well) in 20 μL of a sodium acetate buffer (25 mM, pH 5.2), and resulting mixtures each were allowed to stand for 10 min and then diluted with 230 μL of a Opti-MEM medium to obtain mRNA-loaded complex particle solutions; a medium for the DC 2.4 cells in the plate was removed, then the DC 2.4 cells were washed once with PBS, and the complex particle solutions each were added; and the cells were cultured for 24 h, an mRNA transfection efficiency in cells was observed by FCM and LSCM. A commercial gene transfection reagent Lipofectamine 2000 was adopted as a positive control.

[2] = test system: HeLa cells; test: Transfection of GFP-expressing plasmid DNA in HeLa cells (FCM); assay type: cell-based; details: material 0.25-8 μg/well, plasmid DNA 0.5 μg/well, 24 h, compared with Lipofectamine 2000
Protocol: In this experiment, with GFP-expressing plasmid DNA as a reporter gene, a gene transfection efficiency of a cationic lipid analog material in HeLa cells was detected. A specific method was as follows:
HeLa cells were inoculated in a 24-well plate and cultured in an incubator for 12 h; each of different cationic lipid analog materials—(0.25 μg/well to 8 μg/well) was mixed with GFP-expressing plasmid DNA (0.5 μg/well) in 40 μL of a sodium acetate buffer (25 mM, […] resulting mixtures each were allowed to stand for 10 min and then diluted with 460 μL of a Opti-MEM medium to obtain plasmid DNA-loaded cationic lipid analog complex particle solutions; a medium for the HeLa cells in the plate was removed, then the HeLa cells were washed once with PBS, and the complex particle solutions each were added; and the cells were further cultured for 24 h, and then a plasmid DNA transfection efficiency in cells was analyzed by FCM. A commercial gene transfection reagent Lipofectamine 2000 was adopted as a positive control.

[3] = test system: HeLa cells; test: Transfection of luciferase-expressing plasmid DNA in HeLa cells; assay type: cell-based; details: 24 h, compared with Lipofectamine 2000
Protocol: In this example, with luciferase-expressing plasmid DNA as a reporter gene, a gene transfection efficiency of a cationic lipid analog material in HeLa cells was detected. A specific operation method was as follows: HeLa cells were inoculated in a 96-well plate and cultured in an incubator for 12 h; each of different cationic lipid analog materials was mixed with luciferase-expressing plasmid DNA (0.5 μg) in 40 μL of a sodium acetate buffer (25 mM, pH 5.2), and resulting mixtures each were allowed to stand for 10 min and then diluted with 460 μL of a Opti-MEM medium to obtain plasmid DNA-loaded cationic lipid analog complex particle solutions; a medium for the HeLa cells in the plate was removed, then the HeLa cells were washed once with PBS, and the complex particle solutions each were added in a volume of 125 μL; the cells were further cultured for 24 h, then a resulting culture supernatant was discarded, and the cells were fully lysed; and a substrate was added at 50 μl/well, and an expression level of luciferase was detected by a multi-mode microplate reader.

Compound | mRNA transfection efficiency (eGFP-mRNA) [1] | transfection efficiency of GFP-expressing plasmid DNA (positive rate) [2] | transfection efficiency of luciferase-expressing plasmid DNA (luciferase expression) [3]
CCCCCCCCCCCCCCCC(=O)N(CCC1CCCN1C)C(C(=O)NCCCCCCNC(=O)C(C(C)C)N(CCC1CCCN1C)C(=O)CCCCCCCCCCCCCCC)C(C)C (stereo not shown) [I1R11C16A1] | equivalent to or higher than | – | –
CCCCCCCCCCCCCC(=O)N(CCC1CCCN1C)C(C(=O)NCCCCCCNC(=O)C(C(C)C)N(CCC1CCCN1C)C(=O)CCCCCCCCCCCCC)C(C)C (stereo not shown) [I1R11C14A1] | equivalent to or higher than | equivalent to or higher than | equivalent to or higher than
CCCCCCCCCCCCCC(=O)N(CCCCN(C)C)C(C(=O)NCCCCCCNC(=O)C(C(C)C)N(CCCN(C)C)C(=O)CCCCCCCCCCCCC)C(C)C (stereo not shown) [I1R2C14A1] | equivalent to or higher than | equivalent to or higher than | equivalent to or higher than
CCCCCCCCCCCCCCCCN(CCC1CCCN1C)C(C(=O)NCCOCCOCCNC(=O)C(C(C)C)N(CCC1CCCN1C)C(=O)CCCCCCCCCCCCCCC)C(C)C (stereo not shown) [I2R11C16A1] | equivalent to or higher than | equivalent to or higher than | –
CCCCCCCCCCCCCCCCCCN(CCC1CCCN1C)C(C(=O)NCCOCCOCCNC(=O)C(C(C)C)N(CCC1CCCN1C)C(=O)CCCCCCCCCCCCCCCCC)C(C)C (stereo not shown) [I2R11C18A1] | equivalent to or higher than | equivalent to or higher than | –
CCCCCCCCCCCCCC(=O)C(CCCN(CC)CC)C(C(=O)NCCOCCOCCNC(=O)C(C(C)C)N(CCCN(CC)CC)C(=O)CCCCCCCCCCCCC)C(C)C (stereo not shown) [I2R3C14A1] | equivalent to or higher than | – | –
CCCCCCCC/C=C\CCCCCCCC(=O)N(CCC1CCCN1C)C(C(=O)NCCOCCOCCNC(=O)C(C(C)C)N(CCC1CCCN1C)C(=O)CCCCCCC/C=C\CCCCCCCC)C(C)C (stereo not shown) [I2R11C18-1A1] | equivalent to or higher than | equivalent to or higher than | –
CCCCCCCCCCCCCCCCCC(=O)N(CCCN(C)C)C(C(=O)NCCCCCCNC(=O)C(C(C)C)N(CCCN(C)C)C(=O)CCCCCCCCCCCCCCCCC)C(C)C (stereo not shown) [I1R2C18A1] | equivalent to or higher than | – | –
CCCCC/C=C\C/C=C\CCCCCCCC(=O)N(CCCN(C)C)C(C(=O)NCCCCCCNC(=O)C(C(C)C)N(CCCN(C)C)C(=O)CCCCCCC/C=C\C/C=C\CCCCC)C(C)C (stereo not shown) [I1R2C18-2A1] | equivalent to or higher than | equivalent to or higher than | –
CCCCCCCCCCCCCC(=O)N(CCN(C)C)C(C(=O)NCCOCCOCCNC(=O)C(C(C)C)N(CCN(C)C)C(=O)CCCCCCCCCCCCC)C(C)C (stereo not shown) [I2R1C14A1] | equivalent to or higher than | equivalent to or higher than | equivalent to or higher than
CCCCCCCC/C=C\CCCCCCCC(=O)N(CCN(C)C)C(C(=O)NCCOCCOCCNC(=O)C(C(C)C)N(CCN(C)C)C(=O)CCCCCCC/C=C\CCCCCCCC)C(C)C (stereo not shown) [I2R1C18-1A1] | equivalent to or higher than | equivalent to or higher than | equivalent to or higher than
CCCCCCCCCCCCCCN(CCC1CCCN1C)C(C(=O)NCCOCCOCCNC(=O)C(C(C)C)N(CCC1CCCN1C)C(=O)CCCCCCCCCCCCC)C(C)C (stereo not shown) [I2R11C14A1] | equivalent to or higher than | equivalent to or higher than | –
CCCCCCCCCCCCCCCC(=O)C(CCCN(CC)CC)C(C(=O)NCCOCCOCCNC(=O)C(C(C)C)N(CCCN(CC)CC)C(=O)CCCCCCCCCCCCCCC)C(C)C (stereo not shown) [I2R3C16A1] | equivalent to or higher than | equivalent to or higher than | equivalent to or higher than
CCCCCCCCCCCCCCCC(=O)N(CCCN(C)C)C(C(=O)NCCCCCCNC(=O)C(C(C)C)N(CCCN(C)C)C(=O)CCCCCCCCCCCCCCC)C(C)C (stereo not shown) [I1R2C16A1] | equivalent to or higher than | – | –
CCCCC/C=C\C/C=C\CCCCCCCC(=O)N(CCN(C)C)C(C(=O)NCCOCCOCCNC(=O)C(C(C)C)N(CCN(C)C)C(=O)CCCCCCC/C=C\C/C=C\CCCCC)C(C)C (stereo not shown) [I2R1C18-2A1] | – | equivalent to or higher than | –
CCCCCCCCCCCCCC(=O)N(CCCN(C)C)C(C(=O)NCCOCCOCCNC(=O)C(C(C)C)N(CCCN(C)C)C(=O)CCCCCCCCCCCCC)C(C)C (stereo not shown) [I2R2C14A1] | equivalent to or higher than | equivalent to or higher than | –
CCCCCCCC/C=C\CCCCCCCC(=O)N(CCCN(C)C)C(C(=O)NCCCCCCNC(=O)C(C(C)C)N(CCCN(C)C)C(=O)CCCCCCC/C=C\CCCCCCCC)C(C)C (stereo not shown) [I1R2C18-1A1] | equivalent to or higher than | – | –
CCCCCCCCCCCCCCCC(=O)N(CCN(C)C)C(C(=O)NCCOCCOCCNC(=O)C(C(C)C)N(CCN(C)C)C(=O)CCCCCCCCCCCCCCC)C(C)C (stereo not shown) [I2R1C16A1] | equivalent to or higher than | equivalent to or higher than | equivalent to or higher than
CCCCCCCCCCCCCCCCCC(=O)C(CCCN(CC)CC)C(C(=O)NCCOCCOCCNC(=O)C(C(C)C)N(CCCN(CC)CC)C(=O)CCCCCCCCCCCCCCCCC)C(C)C (stereo not shown) [I2R3C18A1] | equivalent to or higher than | equivalent to or higher than | equivalent to or higher than
CCCCCCCCCCCCCCCCCC(=O)N(CCC1CCCN1C)C(C(=O)NCCCCCCNC(=O)C(C(C)C)N(CCC1CCCN1C)C(=O)CCCCCCCCCCCCCCCCC)C(C)C (stereo not shown) [I1R11C18A1] | equivalent to or higher than | – | –
CCCCC/C=C\C/C=C\CCCCCCCC(=O)N(CCC1CCCN1C)C(C(=O)NCCOCCOCCNC(=O)C(C(C)C)N(CCC1CCCN1C)C(=O)CCCCCCC/C=C\C/C=C\CCCCC)C(C)C (stereo not shown) [I2R11C18-2A1] | equivalent to or higher than | equivalent to or higher than | equivalent to or higher than
